From patent publication US20230381192A1, “METHODS FOR CONTROLLING AND PREDICTING RECOVERY AFTER NMBA ADMINISTRATION” (Cornell University, priority 2020, published 2023)

Tests used:
[1] = test system: Rhesus monkeys; assay: Spontaneous recovery from NMB (twitch 5% to 95% of baseline) after bolus or infusion in Rhesus monkeys under isoflurane; format: in vivo, Rhesus monkey; conditions: for 5%-95% Interval: mean ± SD
Experimental: Rhesus monkeys under isoflurane anesthesia were administered a bolus dose of either RP2000 or RP1000 at a dose equal to 1× to 10× the ED95 in Rhesus monkeys of the administered compound (ED95,Rp1000=0.040 mg/kg; ED95,RP2000=0.053 mg/kg). Twitch (0.15 Hz) and TOF (2 Hz×2 seconds) were recorded throughout the 6 -10 hours experiments. Time to spontaneous recovery after bolus administration, characterized by recovery of twitch from 5% to 95% of baseline was measured.
Separately, continuous infusions of 20-180 minutes duration were given (to separate subjects), and after discontinuation of infusion, time to spontaneous recovery of NMB, characterized by recovery of twitch from 5% to 95% of baseline was measured.

[2] = Predicted spontaneous recovery after RP2000 in patients under inhaled anesthesia; format: in vivo, human; conditions: doses up to 2.5-3× the ED95
Excerpt: While not wishing to be bound by theory, it is believed that the highly reproducible half-life is due to degradation of RP1000 through cysteine adduction (e.g., by reaction with glutathione). The advantages imparted by the understanding of the pharmacodynamics of RP1000 include, but are not limited to, that the level of recovery of function may be easily predicted in human patients. […] This disclosure therefore reflects this prediction.

In the case of `COc1ccc(C[C@@H]2c3cc(OC)c(OC)cc3CC[N@@+]2(C)CCCOC(=O)/C=C/C(=O)OCCC[N+]2(Cc3ccc(OC)c(OC)c3)CCOCC2)cc1.[Cl-].[Cl-]` [RP2000, 4-(3-(((E)-4-(3-((1R)-6,7-dimethoxy-1-(4-methoxybenzyl)-2-methyl-1,2,3 4-tetrahydro-2-isoquinolin-2-ium-2-yl)propoxy)-4-oxobut-2-enoyl)oxy)propyl)-4-(3,4-dimethoxybenzyl)morpholin-4-ium], the “ED95 in Rhesus monkeys” value ([1]; Rhesus monkeys, isoflurane anesthesia) is reported as 0.053 mg/kg, the “5%-95% Interval” value ([1]; after continuous infusion of 20-180 minutes) is reported as 6.2 ± 1.4 min and the “5%-95% Interval” value ([1]; bolus dose 0.10 mg/kg) is reported as 6.1 ± 1.6 min. The “5%-95% Interval” value ([1]; bolus dose 0.20 mg/kg) was 6.4 ± 1.9 min, the “5%-95% Interval” value ([1]; bolus dose 0.50 mg/kg) was 6.7 ± 2.4 min and the “predictability of spontaneous recovery” value [2] was “highly predictable”.
